The record followed here is US10344279B2, “Methods for the prevention and the treatment of extracapillary glomerulonephritis” (INSERM (Institut National de la Sante et de la Recherche …, priority 2014, dated 2019).

Entries after “also recorded” stand apart in the source; their conditions may differ.

Assay [1] relates to phospho-STAT3 (Tyr705). Nature of the assay: Western blot of phospho-STAT3 in glomeruli / kidney cortex of NTS-challenged mice. It counts as in vivo. As to conditions: erlotinib 10 mg/kg/day; NTS-challenged mice. Here is the method: Podocyte-specific disruption of Stat3 mice were generated by crossing podocin-Cre positive mice (63) with Stat3 floxed mice (64) on C57BL6/J background. Their age-matched littermates with no deletion of Stat3 in any cells are considered as controls. […] Stattic (25 mg/kg) was administered in i.p. way every other day for 10 days. 10 weeks old 129S2/SvPasCr male mice were randomly treated with Stattic and were compared to vehicle-treated (DMSO) littermates.
The glomerulonephritis was induced on male mice (10-12 weeks of age) by intravenous injection of 15 μL of sheep anti-glomerular basement membrane (GBM) nephrotoxic serum (NTS), which was diluted with 85 μL of sterile phosphate buffer solution. Serum injections were repeated twice (on days 2 and 3) at 6 μL/g of body weight and 7 μL/g respectively.
Mouse kidneys were extracted, minced, and digested in 2 mg/mL collagenase I solution (Gibco) in RPMI 1640 (Invitrogen) at 37° C. for 3 minutes, then filtered through a 70-μm cell strainer and one more through a 40-μm cell strainer. […] Podocyte outgrowth area was quantified at day 4 using ImageJ software.
After extraction from glomeruli or podocytes with lysis buffer, proteins were quantified by BCA protein assay kit (iNtRON Biotechnology). […] Protein loading was monitored by using the rat anti-tubulin antibody (Abeam). […] Densitometric analysis with ImageJ software was used for quantification.
(In general: Immunoblotting shows a protein as a band on a membrane.)

In another assay the test system is phospho-EGFR (Tyr1068). Nature of the assay: Western blot of phospho-EGFR in kidney cortex of NTS-challenged mice. The conditions noted are these: erlotinib 10 mg/kg/day. It counts as in vivo.
Assay [2] deals with phospho-STAT3 (Tyr705). Nature of the assay: Western blot of phospho-STAT3 in primary culture of podocytes. The assay is classed as cell-based, mouse. The conditions noted are these: 16 hours; AG1478 1 μM, anti-mIL-6 antibody 10 μg/mL, HB-EGF 10 ng/mL. Here is the method:
After 4 days of primary culture, podocytes were trypsinized then plated into μ-Dish 35 mm high with Culture-Insert (Ibidi). Ibidi's wounding inserts were used for cell migration studies. The coverage of the 500-μm gap was assessed after 12 hours of culture and podocyte migration area was quantified using ImageJ software. The effects of HB-EGF (10 ng/mL, Preprotech) or AG1478 (1 μM, Calbiochem) or anti-mIL-6 monoclonal antibody MP5-20F3 (10 μg/mL, eBiosciences) or Stattic (2 μM, Calbiochem) on differentiated podocytes was applied during 16 hours. After stimulation, podocytes were scrapped in Phosphosafe buffer for protein extraction or in RLT buffer for total RNA extraction.
After extraction from glomeruli or podocytes with lysis buffer, proteins were quantified by BCA protein assay kit (iNtRON Biotechnology). Samples were resolved on 4-12% Bis-Tris Criterion XT gels (Bio-Rad) then transferred to a polyvinylidene difloride membrane. Membranes were incubated with the appropriate primary antibodies: rabbit anti-phospho-EGFR (Tyr1068) (Cell Signaling Technology), rabbit anti-phospho-STAT3 (Tyr705) (Cell Signaling Technology), goat anti-p57 (Santa Cruz Biotechnology). Protein loading was monitored by using the rat anti-tubulin antibody (Abeam). […] Densitometric analysis with ImageJ software was used for quantification.

Experimental for phospho-EGFR (Tyr1068): After extraction from glomeruli or podocytes with lysis buffer, proteins were quantified by BCA protein assay kit (iNtRON Biotechnology). […] Membranes were incubated with the appropriate primary antibodies: rabbit anti-phospho-EGFR (Tyr1068) (Cell Signaling Technology), rabbit anti-phospho-STAT3 (Tyr705) (Cell Signaling Technology), goat anti-p57 (Santa Cruz Biotechnology). Protein loading was monitored by using the rat anti-tubulin antibody (Abeam). Secondary antibodies were donkey-anti rabbit HRP and donkey-anti rabbit HRP (GE Healthcare Life Sciences). […] Densitometric analysis with ImageJ software was used for quantification.

For the molecule `C#Cc1cccc(Nc2ncnc3cc(OCCOC)c(OCCOC)cc23)c1` [erlotinib], the “STAT3 phosphorylation in podocytes” value in the assay on phospho-STAT3 (Tyr705) [1] is recorded as “blunted”. Besides, the “EGFR phosphorylation in the kidney cortex” value in the assay with phospho-EGFR (Tyr1068) is on record as “efficiently blocked”.

With `COc1cc2ncnc(Nc3cccc(Cl)c3)c2cc1OC` [AG1478], the “STAT3 phosphorylation (Tyr705) in cultured primary podocytes” value in the assay on phospho-STAT3 (Tyr705) [2] is “blunted; also recorded: decreased”.

B1: HB-EGF: heparin-binding epidermal growth factor-like growth factor, EGFR ligand (Preprotech) (protein, UniProt Q99075 63-148, looked up)
Heparin-binding EGF-like …: DLQEADLDLLRVTLSSKPQALATPNKEEHGKRKKKGKGLGKKRDPCLRKYKDFCIHGECKYVKELRAPSCICHPGYHGERCHGLSL
On to B1, for which the “STAT3 phosphorylation (Tyr705) in cultured primary podocytes” value in the assay on phospho-STAT3 (Tyr705) [2] is on record as “enhanced”.
